Literature values as cited in US20120189710A1, “ANTIBACTERIAL COMPOSITIONS” (priority 2009, published 2012).

C=CCSC[C@H](N)C(=O)O [SAC, S-allyl cysteine]
water solubility: water soluble
